Source: US20220348563A1, “KDM INHIBITORS AND USES THEREOF” (DANA-FARBER CANCER INSTITUTE, INC., priority 2019, published 2022)

Tests used:
KDM3A = biological target: T1, KDM3A (Homo sapiens, UniProt Q9Y4C1); experiment: KDM3 AlphaScreen assay (Table 2, ASSAY 9); assay type: biochemical; details: for IC50: ASSAY 9
T1 sequence (Q9Y4C1 1-1321): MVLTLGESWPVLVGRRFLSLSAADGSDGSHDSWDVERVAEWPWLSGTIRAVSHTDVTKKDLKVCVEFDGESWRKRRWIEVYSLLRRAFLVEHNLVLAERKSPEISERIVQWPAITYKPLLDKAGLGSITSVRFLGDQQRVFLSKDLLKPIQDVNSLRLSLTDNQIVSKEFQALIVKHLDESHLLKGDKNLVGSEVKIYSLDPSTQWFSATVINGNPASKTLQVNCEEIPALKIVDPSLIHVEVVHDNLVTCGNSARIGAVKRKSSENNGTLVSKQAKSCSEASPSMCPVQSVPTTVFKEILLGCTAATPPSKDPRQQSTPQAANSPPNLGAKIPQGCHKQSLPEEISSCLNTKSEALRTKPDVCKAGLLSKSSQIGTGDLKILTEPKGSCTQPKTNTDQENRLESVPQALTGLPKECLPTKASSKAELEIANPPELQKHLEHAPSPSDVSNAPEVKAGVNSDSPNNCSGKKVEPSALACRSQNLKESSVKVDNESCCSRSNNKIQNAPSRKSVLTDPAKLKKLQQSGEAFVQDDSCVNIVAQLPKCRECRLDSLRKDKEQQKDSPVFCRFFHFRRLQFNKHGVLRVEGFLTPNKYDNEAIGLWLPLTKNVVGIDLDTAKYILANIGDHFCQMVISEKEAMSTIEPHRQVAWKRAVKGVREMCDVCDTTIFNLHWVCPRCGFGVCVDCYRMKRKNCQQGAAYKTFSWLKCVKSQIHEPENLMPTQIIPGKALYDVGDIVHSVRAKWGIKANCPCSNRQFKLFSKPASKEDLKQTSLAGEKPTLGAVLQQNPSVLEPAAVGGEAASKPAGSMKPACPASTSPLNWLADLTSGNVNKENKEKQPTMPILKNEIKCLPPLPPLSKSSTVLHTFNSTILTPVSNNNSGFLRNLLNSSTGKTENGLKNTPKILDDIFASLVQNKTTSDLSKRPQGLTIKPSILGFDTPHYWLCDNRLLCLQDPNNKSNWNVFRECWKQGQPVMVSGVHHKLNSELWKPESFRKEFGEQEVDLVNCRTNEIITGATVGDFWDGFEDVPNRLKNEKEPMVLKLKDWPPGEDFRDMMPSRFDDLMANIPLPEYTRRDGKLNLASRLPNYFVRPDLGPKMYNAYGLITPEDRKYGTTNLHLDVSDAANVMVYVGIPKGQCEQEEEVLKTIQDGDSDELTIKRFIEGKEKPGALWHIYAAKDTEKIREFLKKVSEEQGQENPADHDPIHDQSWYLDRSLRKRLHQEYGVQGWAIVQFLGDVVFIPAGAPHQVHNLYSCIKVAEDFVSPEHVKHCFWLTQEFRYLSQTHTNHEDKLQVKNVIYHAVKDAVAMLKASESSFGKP
Method: (§1) AlphaScreen assays were performed in 384-well plate format using white AlphaPlate™ (PerkinElmer®, USA), and transfer of pre-diluted compound (100 nL) was performed using a Janus® Workstation (PerkinElmer®, USA). All subsequent steps were carried out in assay buffer (50 mM 4-(2-hydroxyethyl)-1-piperazineethanesulfonic acid (HEPES), pH 7.5, 0.1% (wt/vol) bovine serum albumin (BSA) and 0.01% (vol/vol) Tween®20). In brief, 10 μL of assay buffer containing demethylase enzyme (2 nM Final) was pre-incubated for 15 min with dilutions of compound. The enzyme reaction was initiated by the addition of substrate (5 μL) consisting of L-ascorbic acid (100 μM Final), […] (OG) (5 μM Final), FAS (10 μM Final) and histone H3(1-21)K9Me3-GGK Biotin (100 nM Final). The enzyme reaction was allowed to proceed for 30 minutes and was stopped by the addition of 5 μL of assay buffer containing ethylenediaminetetraacetic acid (EDTA) (40 mM) and NaCl (1,200 mM). The final concentration of DMSO was 1%. Streptavidin donor beads (0.08 mg/ml) and protein-A-conjugated acceptor beads (0.08 mg/ml) were preincubated for 1 h with antibody to methyl mark (300 ng/mL Final), and the presence of histone H3 product methyl mark was detected using the preincubated AlphaScreen™ beads (5 μL). Detection was allowed to proceed for 2 h at room temperature, and the assay plates were read on the EnVision® 2104 plate reader. Data were normalized to the (no-enzyme) control, and the IC50 values were determined via nonlinear regression curve fit using GraphPad Prism 7.

KDM3B = KDM3B (Homo sapiens, UniProt Q7LBC6); experiment: KDM3B AlphaScreen assay (Table 1); assay type: biochemical
Chain of KDM3B (Q7LBC6 whole entry, species assumed): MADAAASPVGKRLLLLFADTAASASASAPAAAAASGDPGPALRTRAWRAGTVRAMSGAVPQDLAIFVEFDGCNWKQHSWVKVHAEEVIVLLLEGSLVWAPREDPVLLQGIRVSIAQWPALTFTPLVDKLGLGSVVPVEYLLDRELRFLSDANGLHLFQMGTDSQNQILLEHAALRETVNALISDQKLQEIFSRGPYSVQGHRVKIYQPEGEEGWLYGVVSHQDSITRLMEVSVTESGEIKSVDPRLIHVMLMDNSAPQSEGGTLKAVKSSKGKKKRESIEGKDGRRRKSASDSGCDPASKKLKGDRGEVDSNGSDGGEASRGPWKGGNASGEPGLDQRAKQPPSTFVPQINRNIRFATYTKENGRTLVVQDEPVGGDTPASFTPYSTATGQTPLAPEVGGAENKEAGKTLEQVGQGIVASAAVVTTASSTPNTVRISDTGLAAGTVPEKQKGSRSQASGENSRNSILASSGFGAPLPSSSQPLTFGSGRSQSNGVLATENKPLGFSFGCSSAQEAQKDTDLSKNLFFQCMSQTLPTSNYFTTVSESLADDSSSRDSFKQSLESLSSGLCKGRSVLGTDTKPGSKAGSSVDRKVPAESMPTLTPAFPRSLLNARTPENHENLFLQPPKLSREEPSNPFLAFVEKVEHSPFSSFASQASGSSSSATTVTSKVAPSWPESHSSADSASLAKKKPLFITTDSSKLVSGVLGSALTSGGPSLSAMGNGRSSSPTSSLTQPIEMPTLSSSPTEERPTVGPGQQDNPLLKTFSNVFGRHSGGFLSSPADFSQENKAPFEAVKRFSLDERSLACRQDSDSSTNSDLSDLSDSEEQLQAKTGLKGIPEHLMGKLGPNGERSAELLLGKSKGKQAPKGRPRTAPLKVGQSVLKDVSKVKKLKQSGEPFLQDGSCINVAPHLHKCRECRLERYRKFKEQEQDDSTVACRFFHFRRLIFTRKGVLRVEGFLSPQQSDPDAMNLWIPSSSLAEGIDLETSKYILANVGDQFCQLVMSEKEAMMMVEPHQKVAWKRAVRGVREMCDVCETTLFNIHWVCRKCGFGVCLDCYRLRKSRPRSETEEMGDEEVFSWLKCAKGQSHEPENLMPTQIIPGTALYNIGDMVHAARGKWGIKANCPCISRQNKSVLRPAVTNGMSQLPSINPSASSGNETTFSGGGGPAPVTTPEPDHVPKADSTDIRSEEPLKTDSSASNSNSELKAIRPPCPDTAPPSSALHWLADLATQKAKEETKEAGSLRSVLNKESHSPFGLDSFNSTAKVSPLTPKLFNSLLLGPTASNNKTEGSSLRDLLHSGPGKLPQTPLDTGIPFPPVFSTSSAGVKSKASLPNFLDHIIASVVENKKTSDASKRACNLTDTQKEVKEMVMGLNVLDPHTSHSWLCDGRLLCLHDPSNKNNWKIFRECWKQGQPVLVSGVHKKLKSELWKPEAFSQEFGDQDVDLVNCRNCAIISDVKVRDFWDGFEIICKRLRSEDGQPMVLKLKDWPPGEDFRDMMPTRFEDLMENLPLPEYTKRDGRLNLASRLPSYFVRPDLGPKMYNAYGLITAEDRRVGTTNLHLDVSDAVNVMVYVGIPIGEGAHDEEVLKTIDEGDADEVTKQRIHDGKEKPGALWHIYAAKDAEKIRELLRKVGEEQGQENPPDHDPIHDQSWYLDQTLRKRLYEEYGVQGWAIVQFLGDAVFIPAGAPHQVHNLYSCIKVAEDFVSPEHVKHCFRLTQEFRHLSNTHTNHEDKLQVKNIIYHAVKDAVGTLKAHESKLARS
Method: as §1, with “Detection was allowed to proceed for 2 h at room temperature, and the assay plates were read on the EnVision® 2104 plate reader.” left out
Data are expressed as IC50 (μM).

With `CN(C)c1ccc(CNc2ccc(F)cc2C(=O)N2CCN(Cc3ccc(N(C)C)cc3)CC2)cc1` [Compound 5, (2-((4-(dimethylamino)benzyl)amino)-5-fluorophenyl)(4-(4-(dimethylamino)benzyl)piperazin-1-yl)methanone] the “KDM3A inhibition, verdict in words on Table 2” value (KDM3A) was “potent KDM3A inhibitors” and the IC50 (KDM3A) was 7.65 µM.

With `CN(C)c1ccc(-c2ccc(OC3CCN(C(=O)c4cn(S(=O)(=O)c5ccccc5)c5ccccc45)CC3)nc2)cc1` [Compound 11] the “KDM3A inhibition, verdict in words on Table 2” value (KDM3A) was “potent KDM3A inhibitors” and the IC50 (KDM3A) was 33.6 µM.

Compound `CN(C)c1ccc(CCNC(=O)CCC(=O)N2CCC(Oc3ccc(C(F)(F)F)cn3)CC2)cc1` [JADA69, N-(4-(dimethylamino)phenethyl)-4-oxo-4-(4-((5-(trifluoromethyl)pyridin-2-yl)oxy)piperidin-1-yl)butanamide] has an IC50 (KDM3B; ASSAY 1) of 27.9 µM.

`CN(C)c1ccc(CCNC(=O)CCC(=O)N2CCC(Oc3cc(-c4ccc(N(C)C)cc4)ccn3)CC2)cc1` [JADA84, N-(4-(dimethylamino)phenethyl)-4-(4-((4-(4-(dimethylamino)phenyl)pyridin-2-yl)oxy)piperidin-1-yl)-4-oxobutanamide] showed an IC50 (KDM3B; ASSAY 1) of 53 µM.

`CN(C)c1ccc(CCNC(=O)CCC(=O)N2CCC(Oc3ccc(-c4ccc(N(C)C)cc4)cn3)CC2)cc1` [JADA92, N-(4-(dimethylamino)phenethyl)-4-(4-((5-(4-(dimethylamino)phenyl)pyridin-2-yl)oxy)piperidin-1-yl)-4-oxobutanamide] showed an IC50 (KDM3B; ASSAY 1) of 8.78 µM, an IC50 (KDM3B; ASSAY 2) of 13.7 µM and an IC50 (KDM3B; ASSAY 7) of 9.79 µM.

With `CN(C)c1ccc(CCCNC(=O)c2ccccc2C(=O)N2CCC(Oc3ccc(Br)cn3)CC2)cc1` [JADA133] the IC50 (KDM3B; ASSAY 3) was 18.6 µM.

Compound `CN(C)c1ccc(-c2ccc(OC3CCN(C(=O)c4ccccc4OC(=O)c4ccccc4O)CC3)nc2)cc1` [JADA196, 2-(4-((5-(4-(dimethylamino)phenyl)pyridin-2-yl)oxy)piperidine-1-carbonyl)phenyl 2-hydroxybenzoate] has an IC50 (KDM3A) of 16 µM.

With `CN(C)c1ccc(CCC(=O)Nc2ccc(F)cc2C(=O)N2CCC(Oc3ccc(-c4ccc(N(C)C)cc4)cn3)CC2)cc1` [KDM3-23, 3-(4-(dimethylamino)phenyl)-N-(2-(4-((5-(4-(dimethylamino)phenyl)pyridin-2-yl)oxy)piperidine-1-carbonyl)-4-fluorophenyl)propanamide] the “KDM3B inhibition, verdict in words on Table 1” value (KDM3B) was “potent KDM3B inhibitors” and the IC50 (KDM3B; ASSAY 5) was 4.78 µM.

`CN(C)c1ccc(CCC(=O)Nc2ccc(F)cc2C(=O)N2CCC(Oc3ccc(-c4ccc(CN5CCOCC5)cc4)cn3)CC2)cc1` [KDM3-24] gave an IC50 (KDM3B; ASSAY 5) of 10.9 µM.

Work on `CN(C)c1ccc(CCC(=O)Nc2ccc(F)cc2C(=O)N2CCC(Oc3cc(N4CCOCC4)ccn3)CC2)cc1` [KDM3-26, 3-(4-(dimethylamino)phenyl)-N-(4-fluoro-2-(4-((4-morpholinopyridin-2-yl)oxy)piperidine-1-carbonyl)phenyl)propanamide] yielded an IC50 (KDM3B; ASSAY 6) of 74.3 µM.

For `CN(C)c1ccc(CCC(=O)Nc2ccc(F)cc2C(=O)N2CCC(Oc3cc(N4CCCCC4)ccn3)CC2)cc1` [KDM3-27, 3-(4-(dimethylamino)phenyl)-N-(4-fluoro-2-(4-((4-(piperidin-1-yl)pyridin-2-yl)oxy)piperidine-1-carbonyl)phenyl)propanamide], the IC50 (KDM3B; ASSAY 6) was 11.3 µM.

Compound `CCOC(=O)c1ccc(N)c(C(=O)N2CCC(Oc3cc(-c4ccc(N(C)C)cc4)ccn3)CC2)c1` [KDM3-31, ethyl 4-amino-3-(4-((4-(4-(dimethylamino)phenyl)pyridin-2-yl)oxy)piperidine-1-carbonyl)benzoate] has an IC50 (KDM3B; ASSAY 6) of 9.43 µM, an IC50 (KDM3B; ASSAY 7) of 8.26 µM and an IC50 (KDM3B; ASSAY 8) of 10.8 µM.

`CN(C)c1ccc(CCNC(=O)/C=C\C(=O)N2CCC(Oc3ccc(-c4ccc(N(C)C)cc4)cn3)CC2)cc1` [KDM3-38, (Z)-N-(4-(dimethylamino)phenethyl)-4-(4-((5-(4-(dimethylamino)phenyl)pyridin-2-yl)oxy)piperidin-1-yl)-4-oxobut-2-enamide] was tested, and the IC50 (KDM3B; ASSAY 7) was 5.65 µM.

For `CN(C)c1ccc(-c2ccc(OC3CCN(C(=O)c4ccccc4[N+](=O)[O-])CC3)nc2)cc1` [KDM3-39, (4-((5-(4-(dimethylamino)phenyl)pyridin-2-yl)oxy)piperidin-1-yl)(2-nitrophenyl)methanone], the IC50 (KDM3B; ASSAY 7) was 10.9 µM and the IC50 (KDM3B; ASSAY 8) was 19.2 µM.

Compound `CC(=O)Nc1ccc(C(=O)N2CCC(Oc3ccc(-c4ccc(N(C)C)cc4)cn3)CC2)c(N)c1` [KDM3-40, N-(3-amino-4-(4-((5-(4-(dimethylamino)phenyl)pyridin-2-yl)oxy)piperidine-1-carbonyl)phenyl)acetamide] has an IC50 (KDM3B; ASSAY 8) of 22.4 µM.

With `CN(C)c1ccc(-c2ccc(OC3CCN(C(=O)c4cc(C(=O)O)ccc4N)CC3)nc2)cc1` [KDM3-41, 4-amino-3-(4-((5-(4-(dimethylamino)phenyl)pyridin-2-yl)oxy)piperidine-1-carbonyl)benzoic acid] the IC50 (KDM3B; ASSAY 8) was 49.4 µM.

With `CN(C)c1ccc(-c2ccc(OC3CN(C(=O)c4ccccc4[N+](=O)[O-])C3)nc2)cc1` [KDM3-42, (3-((5-(4-(dimethylamino)phenyl)pyridin-2-yl)oxy)azetidin-1-yl)(2-nitrophenyl)methanone] the IC50 (KDM3B; ASSAY 8) was 11.8 µM.

`CN(C)c1ccc(-c2ccnc(OC3CCN(C(=O)c4cc(C(=O)O)ccc4N)CC3)c2)cc1` [KDM3-43, 4-amino-3-(4-((4-(4-(dimethylamino)phenyl)pyridin-2-yl)oxy)piperidine-1-carbonyl)benzoic acid] gave an IC50 (KDM3B; ASSAY 8) of 61 µM.

Work on `CN(C)c1ccc(CNC(=O)/C=C\C(=O)N2CCC(Oc3ccc(-c4ccc(N(C)C)cc4)cn3)CC2)cc1` [KDM3-47, (Z)-N-(4-(dimethylamino)benzyl)-4-(4-((5-(4-(dimethylamino)phenyl)pyridin-2-yl)oxy)piperidin-1-yl)-4-oxobut-2-enamide] yielded an IC50 (KDM3A) of 13 µM.

In the case of `CN(C)c1ccc(CCC(=O)Nc2cc(F)ccc2C(=O)N2CCC(Oc3ccc(-c4ccc(N(C)C)cc4)cn3)CC2)cc1` [KDM3-51, 3-(4-(dimethylamino)phenyl)-N-(2-(4-((5-(4-(dimethylamino)phenyl)pyridin-2-yl)oxy)piperidine-1-carbonyl)-5-fluorophenyl)propanamide], the IC50 (KDM3A) is reported as 14 µM.
